Entries after “also recorded” stand apart in the source; their conditions may differ. Like-named read-outs stand apart in the source and are kept apart here.

The test system of data set [1] is Adv.SAA2-induced IOP in mouse. As to the kind of experiment: Mouse IOP after intravitreal injection of Adv.SAA2 + anti-CD40L; topical p38 MAPK inhibitor. Conditions: topical 1% b.i.d. How it is done:
Contralateral eye of each animal was not injected. In addition to Adv, each animal received IP injection of anti-CD40L (0.5 mg/injection) on days −1, 0, 1, 2, 5, 9, & 14 to prolong the expression period of the Adv.SAA2. Mouse IOP was measured by Tonolab in a mask way. Mean of IOP for each eye was obtained from 18 to 30 measurements.

Data set [2] concerns SAA induced IL-8 secretion in TM cells. Briefly: Inhibition of SAA induced IL-8 secretion in TM cells (IL-8 in media by ELISA). The class given is cell-based. The procedure: FIG. 11. Effect of MAP p38 kinase inhibitors on induction of IL-8 by SAA treatment (1 μg/ml) in TM cells. […] IL-8 was measured in the media by ELISA.
(§1) FIG. 12. […] NTM650-03, p9 or HL-60 cells were treated in serum-free DMEM for 4 hours with 1 μg/ml SAA and the indicated concentrations of SB202580. IL-8 was measured in the media by ELISA.
(§2) One pathway for upregulation of IL-8 is through activation of MAP kinases.
(An ELISA detects its analyte on a solid surface through an enzyme-linked reagent.)

For data set [3], the system named is SAA stimulated IL-8 secretion in HL-60 cells. Briefly: Inhibition of SAA stimulated IL-8 secretion in HL-60 cells (IL-8 in media by ELISA). The class given is cell-based. Conditions: for Times more effective than SB203580: HL60 cells, inhibition curves; for IC50: Homo sapiens, read-out: Calculated IC50, inhibition of SAA stimulated IL-8 secretion. The procedure: as §1
FIG. 13. […] IL-8 was measured in the media by ELISA.
as §2

The next data set concerns plasma SAA concentration. Conditions: in vivo; cited from earlier work.
The test system of data set [4] is perfused human anterior segments. As to the kind of experiment: Perfusion cultured human eyes treated with recombinant SAA. The conditions noted are these: 1 μg/mL, all five eyes. The procedure: FIG. 9. Effect of recombinant human Serum Amyloid A (rhSAA, 1 μg/mL; treatment started at time 0) on IOP of perfused human anterior segments.
FIG. 10. Effect of recombinant human Serum Amyloid A (rhSAA, 1 μg/mL; treatment started at time 0) on interleukin-8 (IL-8) level in the perfusate of perfused human anterior segments.
Five pairs of human eyes were perfused with media containing either recombinant SAA (1 μg/mL) (experimental eye) or an equivalent volume of vehicle (control eye). At the end of the culture period, 4 quadrants of each eye were examined by transmission electron microscopy to determine TM tissue viability. Perfusate of each eye was collected and used for ELISA measurement of IL-8 level. […] The change in IOP correlated with SAA-induced increase in interleukin-8 in the perfusates. All five pairs of eyes had acceptable post-perfusion TM viability scores.

For a further data set, the system named is HL-60 cells. As to the kind of experiment: IL-8 secretion by HL-60 cells in response to rhSAA. Format: cell-based. Conditions: four hours, increasing concentrations. The procedure: FIG. 5. IL-8 secretion by HL-60 cells in response to increasing concentrations of rhSAA.
Cytokine-like properties of SAA include induction of IL-8 secretion by neutrophils. (Furlaneto and Campa, 2002; He et al. 2003). HL-60 cells, a promyelocytic cell line, was identified that responds to SAA with increased IL-8 secretion, and can be used for in vitro assays of SAA function. HL-60 cells were treated for four hours with increasing concentrations of recombinant human SAA, and IL-8 was measured in the media by ELISA. […] HL-60 cells can be used as a surrogate cell line for functional assays to identify agents that alter SAA function and expression levels.

Where [5] appears, read: read-out: % Inhibition of SAA induced IL-8 secretion.
Where [6] appears, read: 10 μM, TM cells, read-out: % Inhibition of SAA induced IL-8 secretion.
Setting [7] is: 50 μM, TM cells, read-out: % Inhibition of SAA induced IL-8 secretion.
Where [8] appears, read: 1 μM, TM cells, read-out: % Inhibition of SAA induced IL-8 secretion.

Broadly, the inhibition is the drop in the measured response relative to a control, in per cent. What is called IC50 is the concentration at which inhibition is half-maximal. For `Fc1ccc(-c2c(-c3ccncc3)[nH]c3cccnc23)cc1` [4-azaindole, 3-(4-fluorophenyl)-2-(pyridin-4-yl)-1H-pyrrolo[3,2-b]pyridine], the “Effect on IOP in the non-injected eyes” value in data set [1] was “did not affect IOP”. The “Effect on Ad.SAA2-induced ocular hypertension (IOP)” value in data set [1] (days -1 to 7 and 13 to 17, Ad.SAA2 2×10^7 pfu/eye + antiCD40L) is listed as “significantly inhibited; also recorded: blocked”. In data set [1] (Ad.SAA2-injected eyes), the “Effect on iris hyperemia in the injected eyes” value is recorded as “did not affect hyperemia”. In addition, in data set [1] (Ad.SAA2-injected mouse eyes), the “Time to lower IOP to baseline after drug administration was resumed at day 13” value turned out to be 3 days. The “Inhibition of SAA induced IL-8 expression (in words)” value (“Inhibition … (in words)” below) in data set [2] (TM cells) was “most potent”. In addition, in data set [2] (setting [5]), the inhibition at 10 µM amounted to 22.6% and the inhibition at 50 µM amounted to 94.3%. Besides, in data set [3], the “Times more effective than SB203580” value is recorded as “approximately 10 times”. In data set [3] (HL-60, 4 h), the IC50 is 300 nM.

As to `Cc1ccc(-n2nc(C(C)(C)C)cc2NC(=O)Nc2ccc(OCCN3CCOCC3)c3ccccc23)cc1` [BIRB-796, 1-(5-tert-butyl-2-p-tolyl-2H-pyrazol-3-yl)-3(4-(2-morpholin-4-yl-ethoxy)naph-thalen-1-yl)urea], the inhibition at 10 µM in data set [2] (setting [6]) came to 28.9%. Besides, in data set [2] (setting [7]), the inhibition at 50 µM amounted to 78.1%. The “Inhibition … (in words)” value in data set [2] (TM cells) is recorded as “most potent”. Moreover, in data set [3], the “Times more effective than SB203580” value is “approximately 10 times”. Besides, in data set [3] (HL-60 cells, serum-free DMEM, 4 hours, 1 μg/ml SAA), the IC50 was 500 nM.

Turning to `COc1cccc(-c2cc(=O)c3ccccc3o2)c1N` [PD98059, 2′-amino-3′-methoxyflavone], the inhibition at 50 µM in data set [2] (setting [7]) is 34%.

With `Oc1ccc(-c2nc(-c3ccc(F)cc3)c(-c3ccncc3)[nH]2)cc1` [SB202190, 4-[4-(4-fluorophenyl)-5-(4-pyridinyl)-1H-imidazol-2-yl]phenol], the inhibition at 1 µM in data set [2] (setting [8]) was 17.2%. The inhibition at 10 µM in data set [2] (setting [6]) is 43.3%. The inhibition at 50 µM in data set [2] (setting [7]) was determined as 38.2%.

As to `C[S+]([O-])c1ccc(-c2nc(-c3ccc(F)cc3)c(-c3ccncc3)[nH]2)cc1` (stereo not shown) [SB203580, 4-(4-fluorophenyl)-2-(4-methylsulfinylphenyl)-5-(4-pyridyl)-1H-imidazole], the “Inhibition … (in words)” value in data set [2] (TM cells) is on record as “most potent”. In addition, in data set [2] (setting [5]), the inhibition at 1 µM was 16.3%, the inhibition at 10 µM came to 38.1%, the inhibition at 25 µM came to 61% and the inhibition at 50 µM is 73.8%. The inhibition at 100 µM in data set [2] (setting [5]) turned out to be 98.7%.

Take `N#CC(=C(/N)Sc1ccccc1N)/C(C#N)=C(/N)Sc1ccccc1N` [U0126, 1,4-diamino-2,3-dicyano-1,4-bis(2-aminophynyltio)butadiene]: the inhibition at 1 µM in data set [2] (setting [8]) is 30.9%. For the same molecule, the inhibition at 10 µM in data set [2] (setting [6]) was found to be 50.6%. For the same molecule, the inhibition at 50 µM in data set [2] (setting [7]) worked out at 53%.

In the case of `Cc1cccc(Nc2cc(Cl)nc(SCC(=O)O)n2)c1C` [WY 14643, (4-chloro-6-(2,3-xylidino)-2-pryrimidinylthiol)-acetic acid], in the data set on plasma SAA concentration, the “Plasma SAA concentration” value was “reduces”.

B1: recombinant SAA: recombinant human Serum Amyloid A protein (protein, UniProt P0DJI8 19-122, looked up)
Serum amyloid A-1 protein: RSFFSFLGEAFDGARDMWRAYSDMREANYIGSDKYFHARGNYDAAKRGPGGAWAAEVITDARENIQRFFGHGAEDSLADQAANEWGRSGKDPNHFRPAGLPEKY
In the case of B1, in data set [4], the “IL-8 level in perfusate” value is “elevated IL-8 level”. The “IOP of perfused human eyes” value in data set [4] (within 24 h of treatment) was “elevated IOP”. Besides, in the data set on HL-60 cells, the IL-8 secretion result is “increased in a dose dependent manner”.

(Values after patent US20070208043A1, “Use of Serum Amyloid A Gene in Diagnosis and Treatment of Glaucoma and Identification of Anti-Glaucoma Agents” (ALCON, INC., priority 2003, published 2007).)
